The text below walks through data of patent publication US20260347373A1, “HETEROCYCLIC COMPOUNDS, COMPOSITIONS THEREOF, AND METHODS OF TREATMENT THEREWITH” (BeOne Medicines I GmbH, priority 2023, published 2026).

One assay addresses KRAS G12D (Homo sapiens, UniProt P01116, G12D). Description: KRAS G12D Probe Displacement Assay (TR-FRET, GDP-loaded). In kind it is binding. Particulars: KRAS G12D, read-out: KRAS^G12D Probe Displacement Assay IC50. The source says: (§1) The synthetic routes of probe 1 and 2, which have been disclosed in PCT/CN2022/070676, are hereby incorporated herein.
(Time-resolved FRET reads energy transfer from a long-lived donor to a nearby acceptor.)

The target of another assay is WT KRAS (Homo sapiens, UniProt P01116). The assay can be described thus: KRAS WT Probe Displacement Assay (TR-FRET, GDP-loaded). In kind it is binding. The conditions noted are these: KRAS WT, read-out: KRAS^WT Probe Displacement Assay IC50.
Sequence of WT KRAS (P01116 1-188 isoform P01116-2): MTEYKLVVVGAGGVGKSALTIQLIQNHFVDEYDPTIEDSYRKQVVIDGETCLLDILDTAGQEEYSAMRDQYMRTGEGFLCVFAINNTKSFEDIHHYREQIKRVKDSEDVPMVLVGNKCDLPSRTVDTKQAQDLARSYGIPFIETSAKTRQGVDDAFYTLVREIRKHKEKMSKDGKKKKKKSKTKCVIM
From the text: as §1

Sequence of KRAS G12D (P01116 1-188 isoform P01116-2 G12D): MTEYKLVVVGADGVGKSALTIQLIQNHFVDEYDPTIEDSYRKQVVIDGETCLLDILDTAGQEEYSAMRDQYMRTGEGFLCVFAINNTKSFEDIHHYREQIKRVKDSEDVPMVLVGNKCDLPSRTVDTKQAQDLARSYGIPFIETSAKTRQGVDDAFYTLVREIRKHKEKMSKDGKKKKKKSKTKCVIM

One may read the IC50 as the point on the concentration scale where inhibition reaches its midpoint. Consider `Cc1cc(N)cc(-c2nc3c4c(nc(OCC5(CN6C[C@@H]7[C@@H](F)[C@@H]7C6)CC5)nc4c2F)N2C[C@H]4CC[C@H](N4)[C@H]2CCO3)c1C(F)(F)F` [Example 169, 3-((6aR,7S,10R)-1-fluoro-13-((1-(((1R,5S,6S)-6-fluoro-3-azabicyclo[3.1.0]hexan-3-yl)methyl)cyclopropyl)methoxy)-5,6,6a,7,8,9,10,11-octahydro-4-oxa-3,11a,12,14,15-pentaaza-7,10-methanocyclohepta[4,5]cycloocta[1,2,3-de]naphthalen-2-yl)-5-methyl-4-(trifluoromethyl)aniline], for which the 50% inhibitory concentration (IC50) is under 0.3 nM at KRAS G12D and 3 to 1000 nM on WT KRAS.

Turning to `Cc1cc(N)cc(-c2nc3c4c(nc(OC[C@H]5COC[C@H]5N(C)C)nc4c2F)N2C[C@H]4CC[C@H](N4)[C@H]2CCO3)c1C(F)(F)F` [Example 41, (3S,4R)-4-((((6aR,7S,10R)-2-(5-amino-3-methyl-2-(trifluoromethyl)phenyl)-1-fluoro-5,6,6a,7,8,9,10,11-octahydro-4-oxa-3,11a,12,14,15-pentaaza-7,10-methanocyclohepta[4,5]cycloocta [1,2,3-de]naphthalen-13-yl)oxy)methyl)-N,N-dimethyltetrahydrofuran-3-amine], the IC50 on KRAS G12D is 0.3 to 3 nM; on WT KRAS it was 3 to 1000 nM.

On to `Cc1cc(N)cc(-c2nc3c4c(nc(OC[C@@]5(C)CCCN(C6COC6)C5)nc4c2F)N2C[C@H]4CC[C@H](N4)[C@H]2CCO3)c1C(F)(F)F` [Example 197, 3-((6aR,7S,10R)-1-fluoro-13-(((S)-3-methyl-1-(oxetan-3-yl)piperidin-3-yl)methoxy)-5,6,6a,7,8,9,10,11-octahydro-4-oxa-3,11a,12,14,15-pentaaza-7,10-methanocyclohepta[4,5]cycloocta[1,2,3-de]naphthalen-2-yl)-5-methyl-4-(trifluoromethyl)aniline], for which the IC50 at KRAS G12D is under 0.3 nM; at WT KRAS it was 3 to 1000 nM.

As to `Cc1cc(N)cc(-c2nc3c4c(nc(OCC5(CN6CC[C@H](F)C6)CC5)nc4c2F)N2C[C@H]4CC[C@H](N4)[C@H]2CCO3)c1C(F)(F)F` [Example 157, 3-((6aR,7S,10R)-1-fluoro-13-((1-(((S)-3-fluoropyrrolidin-1-yl)methyl)cyclopropyl)methoxy)-5,6,6a,7,8,9,10,11-octahydro-4-oxa-3,11a,12,14,15-pentaaza-7,10-methanocyclohepta[4,5]cycloocta[1,2,3-de]naphthalen-2-yl)-5-methyl-4-(trifluoromethyl)aniline], the IC50 on KRAS G12D was under 0.3 nM; at WT KRAS, 3 to 1000 nM.

As for `Cc1cc(N)cc(-c2nc3c4c(nc(OCC5(C)CC(F)CN(C6CCOCC6)C5)nc4c2F)N2C[C@H]4CC[C@H](N4)[C@H]2CCO3)c1C(F)(F)F` (single isomer, unassigned) [Example 232], the results for the IC50 at KRAS G12D and on WT KRAS were under 0.3 nM and 0.3 to 3 nM, respectively.

`Cc1cc(N)cc(-c2nc3c4c(nc(OCC56CCCN5CC(F)(F)C6)nc4c2F)N2C[C@H]4CC[C@H](N4)[C@H]2CCO3)c1C(F)(F)F` (stereo partly drawn) [Example 1, 3-((6aR,7S,10R)-13-((2,2-difluorotetrahydro-1H-pyrrolizin-7a(5H)-yl)methoxy)-1-fluoro-5,6,6a,7,8,9,10,11-octahydro-4-oxa-3,11a,12,14,15-pentaaza-7,10-methanocyclohepta[4,5]cycloocta[1,2,3-de]naphthalen-2-yl)-5-methyl-4-(trifluoromethyl)aniline]: the IC50 at KRAS G12D was in the range of 0.3 to 3 nM; on WT KRAS, 3 to 1000 nM.

Regarding `Cc1cc(N)cc(-c2nc3c4c(nc(OC[C@]56C[C@H](F)CN5C[C@H](F)C6)nc4c2F)N2C[C@H]4CC[C@H](N4)[C@H]2CCO3)c1C(F)(F)F` [Example 35], the results for the IC50 at KRAS G12D and at WT KRAS were 0.3 to 3 nM and 3 to 1000 nM, respectively.
